Results taken from article PMC11352932, “Enhancing Maturation and Translatability of Human Pluripotent Stem Cell-Derived Cardiomyocytes through a Novel Medium Containing Acetyl-CoA Carboxylase 2 Inhibitor” (Cells, 2024).
Positions of bridges follow the written chain, without caps; N, C: chain ends. No end group written: not given here.

Experiments:
[1] = system: IK1, encoded by Kir channels; experiment: Block of inward current in voltage-clamp; assay type: cell-based, human; settings: hiPSC-CMs cultured in maturation medium
Procedure: All recordings were performed at RT.
Cells were superfused with an extracellular solution containing (mM) NaCl 136.8, KCl 4, HEPES 10, CaCl2 2, MgCl2 1, and Glucose 10 (pH adjusted to 7.2 with NaOH) for AP recording and K^+ current whole-cell recording. For whole-cell recording of Na^+ and Ca^2+ currents, the following extracellular solution was used (mM): NaCl 40, KCl 4, NMDG 96.8, HEPES 10, CaCl2 2, MgCl2 1, and Glucose 10 (pH adjusted to 7.2 with HCl); 1 mM of CdCl2 was also added to block L-type Ca^2+ currents when recording Na^+ currents.
Patch pipettes contained (mM): KCl 150, HEPES 10, EGTA 10, and MgATP 2 (pH adjusted to 7.2 with KOH). For AP recording, perforated patch recording was used, and pipettes were backfilled with a solution containing 50 μg/mL gramicidin (diluted from a 50 mg/mL gramicidin DMSO stock solution). A stock solution of ivabradine was prepared with DMSO. All stock solutions were diluted ≥1:1000 in extracellular solution before use.

hiPSC-CMs [2] = experiment: Seahorse bioenergetics (Mito Stress test, etomoxir FAO); assay type: cell-based, human; settings: maturation medium versus maturation medium without ACC2i
Procedure: The Seahorse XF96 extracellular flux analyzer (Agilent, Santa Clara, CA, USA) was used to assess mitochondrial function. Seahorse plates were coated with fibronectin, and hiPSC-CMs were seeded onto the plates at a density of 30,000 cells per well. Culture medium was exchanged for Agilent Seahorse XF RPMI Basal Medium supplemented with 5.5 mM glucose, 2 mM glutamine, 150 µM sodium pyruvate, 100 µM Palmitate/BSA, and 5 mM Hepes, 1 h before the assay and for the duration of the measurement. For the Mito Stress test, mitochondria inhibitors were injected during the measurements as follows: Oligomycin (2 µM), 2.4-Dinitrophenol (DNP, 225 µM), rotenone, and antimycin A (both at 1.11 µM). The oxygen consumption rate (OCR) and extracellular acidification rate (ECAR) values were normalized to the number of nuclei per well quantified by Hoechst staining and fluorescence imaging. The baseline OCR was defined as the average values measured from time points 2 to 4 during the experiments subtracting the non-mitochondrial oxygen consumption rate determined as the minimum rate measurement after rotenone/antimycin A injection. Spare respiratory capacity was calculated as the difference between uncoupler DNP and baseline OCR values. ATP production was calculated by subtracting the minimum rate measurement after Oligomycin injection from the last rate measurement before Oligomycin injection. Proton leak was calculated by subtracting non-mitochondrial OCR from the minimum rate measurement after Oligomycin injection. Lastly, oxidation of exogenous FA was measured after injection of 50 µM Etomoxir. OCR due to FA oxidation was determined by subtracting the minimum rate measurement after Etomoxir injection from the last rate measurement before Oligomycin injection. All wells with a basal respiratory rate below 40 pmol/min were excluded from analysis.

iPSC C32 CMs = experiment: Calcium imaging, Fluo-4, with and without isoproterenol; assay type: cell-based, human
Procedure: (§1) iPSC C32-derived CMs were mounted on glass-bottom organ dishes (MatTek, P35G-1.5-14-c) coated with matrigel and incubated with Fluo-4 (Molecular Probes) at 5 µM for 30 min. Fluo-4 was washed in Tyrode’s solution for 30 min before imaging. Cells were placed in Tyrode’s solution containing CaCl2: 1.8 mM; NaCl: 130 mM; KCl: 5.4 mM; HEPES: 25 mM; MgCl2·6H2O: 0.5 mM; NaH2PO4: 0.4 mM; pH 7.4 at 37 °C for imaging. CMs were paced at 1 Hz and live imaging was recorded at 98 fps using a Nikon Eclipse with a Yokogawa CSU-X1 spinning disk and an EM-CCD Andor camera for high-speed acquisition. Individual whole-cell calcium transient intensities were analyzed in R software (V4.3.1). iCell CMs^2 were plated in 96-well CellCarrier Ultra Phenoplates (PerkinElmer) coated with fibronectin and stained with the EarlyTox^TM Cardiotoxicity kit (Molecular Devices, San Jose, CA, USA), following the manufacturer’s recommendations. Calcium transients were analyzed in the FDSS/µCell system (Hamatsu Photonics, Hamamatsu, Japan). Data were analyzed using FDSS Wavefront Analysis Software (V.1.2.2E). Isoproterenol was used at a final concentration of 1 µM. Calcium transients are calculated as ∆F/F0, with signal leveling and background normalization, where F0 is background fluorescence and F is fluorescence intensity. For each cell, amplitude (peak intensity), upstroke velocity, decay velocity, and peak width at 70% duration (PWD70%) were calculated.
HiPSC-C32 CMs cultured in
Data are presented as mean
E. Representative fluorescent images
ACC2i, and maturation medium. Scale bars: 20µm.
Figure S6. Maturation medium enhances response to hERG blockers. AP recordings were obtained […]
antiarrhythmic known to specifically block hERG.

hiPSC-CMs [3] = experiment: hiPSC-CM viability by number of nuclei; assay type: cell-based, human; settings: number of nuclei after 7 days in culture
Procedure: We initially investigated the impact of increasing concentrations of the ACC inhibitor CP640186 (hereafter referred to as ACC2i, given the predominant expression of ACC2 in CMs) on hiPSC-CM viability. […] Based on these initial results, a concentration of 5 uM was selected for further examination of the role of ACC2i in improving hiPSC-CM maturation.
Figure S1. ACC2 inhibition enhances fatty acid oxidation. Increasing concentrations of ACC2 inhibition are toxic for hiPSC-CMs at concentrations exceeding 5uM. A. Schematic showing signaling cascade and mode of action of acetyl-CoA carboxylase (ACC). There are 2 ACC isoforms: ACC1 in cytosol that is dedicated to the rate limiting step of de novo lipogenesis, and ACC2 a mitochondrial membrane […]
palmitoyltransferase (CPT-1), responsible for long-chain fatty-acid transport into mitochondria.
Combined ACC1 and 2 inhibition is expected to reduce malonyl-CoA levels and de-novo lipogenesis, and to enhance CPT-1 activity and fatty acid oxidation (FAO). G-6-P (glucose-6-phosphate), TCA cycle (tricarboxylic acid cycle), ETC (electron transport chain). B. Impact of increasing doses of ACC2i on hiPSC-CMs viability assessed by number of nuclei after 7 days in culture.
ACC2i concentrations higher than 5 µm. Source of mitochondria image: Servier Medical Art. Statistical […]
(1 picture or pasted object on this page, not shown here)

iCell CMs^2 = experiment: Calcium transients, EarlyTox dye, FDSS; assay type: cell-based, human; settings: maturation medium vs maturation medium without ACC2i
Procedure: as §1

ACC2 = system: ACC2; parameters: method as in PMID 12842871; settings: ACC2 isoform; cited from earlier work
ACC1 = system: ACC1; parameters: method as in PMID 12842871; settings: ACC1 isoform; cited from earlier work
hiPSC-CMs [4] = experiment: In vitro hypertrophy model, ET-1 stimulation; assay type: cell-based, human; settings: 10 nM ET-1, 48 h
Procedure: After 2 weeks in either standard or maturation media, medium was switched to hypertrophy stimulation medium composed of RPMI no glucose supplemented with B27 plus insulin, 5.5 mM glucose and 10 nM endothelin-1 (ET-1, E7764). hPSC-CMs were cultured for 48 h in this medium before their use for further analyses.
Cell area, circularity index, and aspect ratio were determined with FIJI (ImageJ v.2.14.0) software using standard analysis plugins. For each condition, at least 60 cells were analyzed.
RNA extraction was performed using the Agencourt RNAdvance Cell V2 kit (catalog no. A47942, Beckman Coulter, Bromma, Sweden) according to the manufacturer’s instructions. RNA quality was assessed using the Fragment Analyzer Standard Sensitivity RNA kit from Agilent Technologies, ensuring an RNA integrity number greater than 7. Library preparation for iCell cardiomyoctes^2 and Chips22 derived CMs was performed at the NGI (National Genomic Infrastructure, KTH, Stockholm, Sweden) using the Illumina TruSeq stranded mRNA library preparation kit. Clustering was conducted by ‘cBot’, and sequencing was performed on a NovaSeq 6000 (NovaSeq Control Software 1.6.0/RTA v3.4.4) with a 2 × 150 setup using the ‘NovaSeqXp’ workflow in the ‘S4’ flowcell. […] Sequenced reads were quality-controlled with the FastQC software and pre-processed with Trim Galore. Processed reads from iCell cardiomyocytes^2 and Chips22 were aligned to the reference genome GRCh37 with the STAR aligner, and Tophat2 with Bowties was used to map IPS C32 reads to GRCh38. Read counts for the genes were generated using the featureCounts library and normalized FPKM values calculated with StringTie. […]
Differences in gene expression were identified using the DESeq2 method. The analysis was based on read counts, which are required to assess the measurement precision accurately. […]

[5] = 1 µM isoproterenol, maturation medium compared to maturation medium without ACC2i

## [Ba+2].[Cl-].[Cl-] [Ba^2+, BaCl2]
[1]; 100 µM Ba2+
  block of inward current: > 90%

## O=C(c1c2ccccc2cc2ccccc12)N1CCC(N2CCC[C@@H](C(=O)N3CCOCC3)C2)CC1 [CP-640186]
hiPSC-CMs [2]
  FAO reliance (change in basal respiration upon etomoxir): significantly increased
hiPSC-CMs [2]; 5 µM ACC2i
  increase in reserve capacity: 1.7 fold
  reduction in energy dissipation through proton leak: 2.5 fold
iPSC C32 CMs; with ACC2i vs without
  calcium transient amplitude and kinetics: significantly improved
hiPSC-CMs [3]
  ACC2i concentration resulting in a decrease in the number of nuclei (potential cardiac toxicity): exceeding 5 uM
iCell CMs^2
  calcium transient duration: reduction
  calcium uptake and decay kinetics: significant enhancement
  transient calcium amplitude: no change
ACC2
  IC50: ~55 nM
ACC1
  IC50: ~55 nM

## CC(C)NCC(O)c1ccc(O)c(O)c1 (centres unmarked) [isoproterenol]
iPSC C32 CMs; [5]
  increase in amplitude upon stimulation: significantly higher increase
  increase in beat rate upon stimulation: significantly higher increase

## COc1cc2c(cc1OC)CC(=O)N(CCCN(C)C[C@H]1Cc3cc(OC)c(OC)cc31)CC2 [ivabradine]
[1]; 10 µM ivabradine
  block of inward current: ~ 5%

## endothelin-1 (CSCSSLMDKECVYFCHLDIIW; disulfide 1-15, 3-11; ends not checked; UniProt P05305 53-73, looked up) [ET-1]
hiPSC-CMs [4]; cells cultured in standard medium
  structural changes: no significant structural changes
hiPSC-CMs [4]; maturation medium group
  cell area: trend towards increased
  length-to-width ratio: significant decrease
